From patent US20240199611A1, “ANTIBACTERIAL COMPOUNDS” (JANSSEN SCIENCES IRELAND UNLIMITED COMPANY, priority 2021, published 2024)
Where two headings read alike, the source gives them in different places.

Tests used:
[1] = tested on: Mycobacterium tuberculosis strain EH4.0 expressing green-fluorescent protein (GFP); assay: microbe, parasite or virus in culture; type: cell-based; conditions: read-out: pIC50 (converted)

SMILES	melting point [°C]	IC50 ([1]; Test 1 (and/or Test 2)) [nM]	further results
CCC1=NN(c2ccc(CNC(=O)c3c(CC)nc4ccc(Cl)cn34)cc2)CCN1S(=O)(=O)C(F)(F)F [Compound 2]	178.31	–	–
CCc1nc2n(c1C(=O)NCc1ccc(N3CCN(S(=O)(=O)C(F)(F)F)C=N3)cc1)CCCC2 [Compound 3]	189.22	–	–
O=C(NCc1ccc(N2CCN(S(=O)(=O)C(F)(F)F)C=N2)cc1)c1c(C2CC2)nc2ncc(Cl)cn12 [Compound 7]	208.41	–	–
COCc1nc2ccc(Cl)cn2c1C(=O)NCc1ccc(N2CCN(S(=O)(=O)C(F)(F)F)C=N2)cc1 [Compound 8]	167.12	–	IC50 [1]: 251 nM
CCc1nc2ncc(F)cn2c1C(=O)NCc1ccc(N2CCN(S(=O)(=O)C(F)(F)F)C=N2)cc1 [Compound 10]	171.42	–	–
COc1ccn2nc(C)c(C(=O)NCc3ccc(N4CCN(S(=O)(=O)C(F)(F)F)C=N4)cc3)c2c1 [Compound 14]	192.27	–	–
CCc1nc2ccc(Cl)cn2c1C(=O)NCc1ccc(N2CCN(C)C=N2)cc1 [Compound 15]	206.66	–	–
CCc1nc2ccc(Cl)cn2c1C(=O)NCc1ccc(N2CCN(S(=O)(=O)CC(C)C)C=N2)cc1 [Compound 17]	196.82	–	–
CCc1nc2ccc(Cl)cn2c1C(=O)NCc1ccc(N2CCN(C(C)=O)C=N2)cc1 [Compound 18]	245.36	–	–
CCc1nc2ccc(Cl)cn2c1C(=O)NCc1ccc(N2CCN(S(=O)(=O)CCOC)C=N2)cc1 [Compound 19]	196.34	–	–
CCc1nc2ccc(Cl)cn2c1C(=O)NCc1ccc(N2CCN(S(=O)(=O)C(F)(F)F)C(C)=N2)cc1 [Compound 21]	157.49	–	–
CCc1nc2ccc(Cl)cn2c1C(=O)NCc1ccc(N2CCN(S(=O)(=O)C(F)(F)F)C=N2)cc1OC [Compound 22]	175.12	–	–
CCc1nc2ncc(Cl)cn2c1C(=O)NCc1ccc(N2CCN(S(=O)(=O)CC(C)C)C=N2)cc1 [Compound 23]	207.21	–	–
CCc1nc2ncc(Cl)cn2c1C(=O)NCc1ccc(N2CCN(C(C)=O)C=N2)cc1 [Compound 24]	258.01	–	–
CCc1nc2ncc(Cl)cn2c1C(=O)NCc1ccc(N2CCN(S(=O)(=O)C(F)(F)F)C(OC)=N2)cc1 [Compound 27]	174.88	–	–
CCc1nc2ncc(COC)cn2c1C(=O)NCc1ccc(N2CCN(S(=O)(=O)C(F)(F)F)C=N2)cc1 [Compound 33]	225.92	–	–
CCc1nc2ccc(Cl)cn2c1C(=O)NCc1cc(F)c(N2CCN(S(=O)(=O)C(F)(F)F)C=N2)c(F)c1 [Compound 35]	152.93	–	–
CCc1nc2ccc(Cl)cn2c1C(=O)NCc1ccc(N2CCN(S(=O)(=O)C(F)(F)F)C(OC)=N2)c(F)c1 [Compound 37]	193.36	–	–
CCc1nc2ccc(Cl)cn2c1C(=O)NCc1ccc(N2CCN(C=O)C=N2)cc1 [Compound 38]	255.93	–	–
CCc1nc2c(Cl)c(OC)ccn2c1C(=O)NCc1ccc(N2CCN(S(=O)(=O)C(F)(F)F)C=N2)cc1 [Compound 39]	211.19	–	–
CCc1nc2ccc(OC)cn2c1C(=O)NCc1ccc(N2CCN(S(=O)(=O)C(F)(F)F)C=N2)cc1 [Compound 42]	147.57	–	–
CCc1nc2cc(Cl)c(OC)cn2c1C(=O)NCc1ccc(N2CCN(S(=O)(=O)C(F)(F)F)C(OC)=N2)cc1 [Compound 45]	155.29	–	–

SMILES	melting point [°C]	IC50 ([1]; Test 1 (and/or Test 2)) [nM]	further results
CCc1nc2cc(OC)c(Cl)cn2c1C(=O)NCc1ccc(N2CCN(S(=O)(=O)C(F)(F)F)C(OC)=N2)c(F)c1 [Compound 46]	176.82	–	–
CCc1nc2ccc(OC)cn2c1C(=O)NCc1ccc(N2CCN(S(=O)(=O)C(F)(F)F)C(OC)=N2)c(F)c1 [Compound 48]	74.6	–	–
CCc1nc2cc(OC)ccn2c1C(=O)NCc1ccc(N2CCN(S(=O)(=O)C(F)(F)F)C=N2)cc1 [Compound 51]	185.08	–	–
CCc1nc2cc(OC)ccn2c1C(=O)NCc1ccc(N2CCN(S(=O)(=O)C(F)(F)F)C(OC)=N2)cc1 [Compound 52]	164.28	–	–
CCc1nc2ccc(Cl)cn2c1C(=O)NCc1ccc(N2CCN(S(=O)(=O)C(F)(F)F)C(CCOC)=N2)cc1 [Compound 55]	193.51	–	–
CCc1nc2ccc(Cl)cn2c1C(=O)NCc1ccc(N2CCNC=N2)cc1 [Compound 56]	236.36	–	–
CCc1nc2n(c1C(=O)NCc1ccc(N3CCNC=N3)cc1)CCCC2 [Compound 57]	211.47	–	–
CCc1nc2ccc(Cl)cn2c1C(=O)NCc1ccc(N2CCN(C)C(C)=N2)cc1 [Compound 59]	202.94	–	–
CCc1nc2ncc(C(=O)NC)cn2c1C(=O)NCc1ccc(N2CCN(S(=O)(=O)C(F)(F)F)C=N2)cc1 [Compound 61]	193.44	–	–
CCc1nc2ccc(CCCOC)cn2c1C(=O)NCc1ccc(N2CCN(S(=O)(=O)C(F)(F)F)C=N2)cc1 [Compound 63]	159.95	–	–
CCc1nc2cc(OC)c(Cl)cn2c1C(=O)NCc1ccc(N2CCN(S(=O)(=O)C(F)(F)F)C=N2)cc1 [Compound 64]	193.79	–	–
CCc1nc2ccc(N3CCCC3)cn2c1C(=O)NCc1ccc(N2CCN(S(=O)(=O)C(F)(F)F)C=N2)cc1 [Compound 65]	228.15	–	–
CCc1nc2ccc(Cl)cn2c1C(=O)NCc1ccc(N2CCN(C(=O)C(F)(F)F)C=N2)cc1 [Compound 66]	211.3	–	–
CCc1nc2cc(Cl)c(OC)cn2c1C(=O)NCc1ccc(N2CCN(S(=O)(=O)C(F)(F)F)C=N2)cc1 [Compound 67]	206.99	–	–
CCc1nc2ccc(Cl)cn2c1C(=O)NCc1ccc(N2CCN(Cc3nc(C(F)(F)F)cs3)C=N2)cc1 [Compound 69]	163.46	–	–
CCc1nc2cccc(Cl)n2c1C(=O)NCc1ccc(N2CCN(S(=O)(=O)C(F)(F)F)C(OC)=N2)cc1 [Compound 70]	138.71	–	–
CCc1nc2ccc(C#N)cn2c1C(=O)NCc1ccc(N2CCN(S(=O)(=O)C(F)(F)F)C=N2)cc1 [Compound 72]	216.25	–	–
CCc1nc2cc(OC)ccn2c1C(=O)NCc1ccc(N2CCN(S(=O)(=O)C(F)(F)F)C(OC)=N2)c(F)c1 [Compound 75]	135.16	–	–
CCc1nc2ccc(Cl)cn2c1C(=O)NCc1ccc(N2CCN(c3nccs3)C=N2)cc1 [Compound 76]	232.4	–	–
COC1=NN(c2ccc(CNC(=O)c3nnc4ccc(Cl)cn34)cc2F)CCN1S(=O)(=O)C(F)(F)F [Compound 92]	–	–	IC50 [1]: 53.7 nM
COC1=NN(c2ccc(CNC(=O)c3nnc4ccc(Br)cn34)cc2F)CCN1S(=O)(=O)C(F)(F)F [Compound 94]	–	–	IC50 [1]: 38.9 nM
CCc1nc2c(C)cc(C)cn2c1C(=O)NCc1ccc(N2CCN(S(=O)(=O)C(F)(F)F)C=N2)c(F)c1 [Compound 95]	–	–	IC50 [1]: 38 nM

SMILES	melting point [°C]	IC50 ([1]; Test 1 (and/or Test 2)) [nM]	further results
O=C(NCc1ccc(N2CCN(S(=O)(=O)C(F)(F)F)C=N2)c(F)c1)c1c(C(F)(F)F)nc2ccc(Cl)cn12 [Compound 124]	–	10	–
CCc1nc2sc(Cl)cn2c1C(=O)NCc1ccc(N2CCN(S(=O)(=O)C(F)(F)F)C=N2)c(F)c1 [Compound 135]	–	7.24	–
O=C(NCc1ccc(N2CCN(S(=O)(=O)C(F)(F)F)C=N2)c(F)c1)c1c(C(F)F)nc2n1CCCC2 [Compound 147]	–	3.8	–
Cc1cn2c(C(=O)NCc3ccc(N4CCN(S(=O)(=O)C(F)(F)F)C=N4)c(F)c3)c(C)nc2s1 [Compound 153]	–	1.78	–
CCc1nc2nc3c(cn2c1C(=O)NCc1ccc(N2CCN(S(=O)(=O)C(F)(F)F)C=N2)c(F)c1)CCC3 [Compound 154]	–	1.7	–
Cc1ccc2nc(C(F)(F)F)c(C(=O)NCc3ccc(N4CCN(S(=O)(=O)C(F)(F)F)C=N4)c(F)c3)n2c1 [Compound 175]	–	1.58	–
CCc1nc2ccc(F)cn2c1C(=O)NCc1ccc(N2CCN(S(=O)(=O)C(F)(F)F)C(C3CC3)=N2)cc1 [Compound 227]	–	11.5	–
CCc1nc2ncc(C)cn2c1C(=O)NCc1ccc(N2CCN(S(=O)(=O)C(F)(F)F)C(C3CC3)=N2)cc1 [Compound 228]	–	1.45	–
CCc1nc2ccc(C)cn2c1C(=O)NCc1ccc(N2CCN(S(=O)(=O)C(F)(F)F)C(C3CC3)=N2)cc1 [Compound 229]	–	1.07	–
CCc1nc2ccc(Cl)cn2c1C(=O)NCc1ccc(N2CCN(S(=O)(=O)C(F)(F)F)C(C3CC3)=N2)cc1 [Compound 230]	–	6.61	–
CCc1nc2ccc(C)cn2c1C(=O)NCc1cnc(N2CCN(S(=O)(=O)C(F)(F)F)C(C3CC3)=N2)c(F)c1 [Compound 232]	–	1.51	–
CCC1=NN(c2ncc(CNC(=O)c3c(C(F)(F)F)nc4ccccn34)cc2F)CCN1S(=O)(=O)C(F)(F)F [Compound 236]	–	6.17	–
CCc1nc2ccc(C)cn2c1C(=O)NCc1ccc(N2CCN(S(=O)(=O)C(F)(F)F)C(C3CCC3)=N2)cc1 [Compound 237]	–	5.75	–
CC(C)C1=NN(c2ccc(CNC(=O)c3c(C(F)(F)F)nc4n3CCCC4)cc2F)CCN1S(=O)(=O)C(F)(F)F [Compound 239]	–	8.91	–
CCc1nc2n(c1C(=O)NCc1ccc(N3CCN(S(=O)(=O)C(F)(F)F)C(C(C)C)=N3)c(F)c1)CCCC2 [Compound 242]	–	2.4	–
CCc1nc2c(F)cc(Cl)cn2c1C(=O)NCc1ccc(N2CCN(S(=O)(=O)C(F)(F)F)C(C(C)C)=N2)cc1 [Compound 244]	–	4.57	–
CCc1nc2cc(C)c(C)cn2c1C(=O)NCc1ccc(N2CCN(S(=O)(=O)C(F)(F)F)C(C(C)C)=N2)cc1 [Compound 245]	–	13.8	–
CCc1nc2ccc(C)cn2c1C(=O)NCc1cnc(N2CCN(S(=O)(=O)C(F)(F)F)C(C(C)C)=N2)c(F)c1 [Compound 246]	–	2.63	–
Cc1cnc2nc(C(F)F)c(C(=O)NCc3ccc(N4CCN(S(=O)(=O)C(F)(F)F)C(C(C)C)=N4)c(F)c3)n2c1 [Compound 249]	–	1.86	–
CCc1nc2ncc(C)cn2c1C(=O)NCc1ccc(N2CCN(S(=O)(=O)C(F)(F)F)C(C)=N2)cc1 [Compound 250]	–	1.58	–
CC1=NN(c2ccc(CNC(=O)c3c(C(F)(F)F)nc4ncccn34)cc2F)CCN1S(=O)(=O)C(F)(F)F [Compound 254]	–	53.7	–
CC1=NN(c2ncc(CNC(=O)c3c(C(F)(F)F)nc4ccccn34)cc2F)CCN1S(=O)(=O)C(F)(F)F [Compound 256]	–	18.6	–
